Data from ChEMBL document CHEMBL4033613, “Rearranged Terpenoids from the Marine Sponge Darwinella cf. oxeata and Its Predator, the Nudibranch Felimida grahami” (J Nat Prod, 2017).

Key:
Trypanosoma cruzi [1] = assay: Antitrypanosomal activity against Trypanosoma cruzi intracellular amastigotes; assay type: functional, cell-based
Trypanosoma cruzi [2] = assay: Antitrypanosomal activity against Trypanosoma cruzi trypomastigotes; assay type: functional
[3] = Cytotoxicity against mammalian NCTC cells; assay type: functional; details: Mammalia
[4] = Trypanosoma cruzi, read-out: IC50

| IC50 (Trypanosoma cruzi [1]) | IC50 (Trypanosoma cruzi [2]) | IC50 (Trypanosoma cruzi [1]; [4]) [µM] | IC50 (Trypanosoma cruzi [2]; [4]) [µM] | Structure (SMILES) | CC50 [3] [µM] |
| --- | --- | --- | --- | --- | --- |
| Not Active | Not Active |  |  | C[C@@H](C(=O)O)c1c([C@@]2(C)CCCC(C)(C)C2)ccc2c1CN(CC(=O)O)C2=O |  |
| Not Active | Not Active |  |  | C[C@@H](C(=O)O)c1c([C@@]2(C)CCCC(C)(C)C2)ccc2c1CN(C)C2=O |  |
|  |  | 20 | 29 | COC(=O)[C@H](C)c1c([C@@]2(C)CCCC(C)(C)C2)ccc2c1C(=O)OC2 | 54 |
